Where two headings read alike, the source gives them in different places.
Test system: test plant species
Experiment: Post-emergent herbicidal activity test (greenhouse, foliar spray, visual growth reduction)
Assay type: in vivo
Details: post-emergence, 336 h, 140 g ai/ha
Procedure: Post-emergent Test: Seeds or nutlets of the desired test plant species were planted in Sun Gro Metro-Mix® 360 planting mixture, which typically has a pH of 6.0 to 6.8 and an organic matter content of about 30 percent, in plastic pots with a surface area of 64 square centimeters. In some aspects, to ensure good germination and healthy plants, a fungicide treatment and/or other chemical or physical treatment was applied. The plants were grown for 7-21 d in a greenhouse with an approximate 15 h photoperiod which was maintained at 23-29° C. during the day and 22-28° C. during the night. Nutrients and water were added on a regular basis and supplemental lighting was provided with overhead metal halide 1000-Watt lamps as necessary. Plants were used for testing when they reached the first or second true leaf stage. A weighed amount, determined by the highest rate to be tested, of each test compound was placed in a 25 mL glass vial and was dissolved in 4 mL of a 97:3 v/v mixture of acetone and DMSO to obtain concentrated stock solutions. […] The concentrated stock solutions obtained were diluted with 20 mL of an aqueous mixture containing acetone, water, isopropyl alcohol, DMSO, […] crop oil concentrate, and X-77 surfactant in a 48.5:39:10:1.5:1.0:0.02 v/v ratio to obtain spray solutions containing the application rate. Compound requirements are based upon a 12 mL application volume at a rate of 187 liters per hectare (L/ha). Formulated compounds were applied to the plant material with an overhead Mandel track sprayer equipped with […] nozzles calibrated to deliver 187 L/ha over an application area of 0.64 square meters at a spray height of 18 inches (43 cm) above the average plant canopy height. Control plants were sprayed in the same manner with the solvent blank. The treated plants and control plants were placed in a greenhouse as described above and watered by subirrigation to prevent wash-off of the test compounds. After 14 d, the condition of the test plants as compared with that of the nontreated and control plants was determined visually and scored on a scale of 0 to 100 percent where 0 corresponds to no injury and 100 corresponds to complete control. In the reporting of the results, Table A: Percent Growth Reduction Conversion Table was used.

[1] = ECHCG: barnyardgrass (Echinochloa crus-galli), 14 days after application, read-out: Visual Growth Reduction (%) 14 Days After Application, ECHCG
[2] = IPOHE: ivy-leaf morning glory (Ipomoea hederacea), 14 days after application, read-out: Visual Growth Reduction (%) 14 Days After Application, IPOHE
[3] = KCHSC: kochia (Bassia scoparia), 14 days after application, read-out: Visual Growth Reduction (%) 14 Days After Application, KCHSC
[4] = ORYSA: rice (Oryza sativa), 14 days after application, read-out: Visual Growth Reduction (%) 14 Days After Application, ORYSA
[5] = SETFA: giant foxtail (Setaria faberi), 14 days after application, read-out: Visual Growth Reduction (%) 14 Days After Application, SETFA
[6] = SORVU: grain sorghum (Sorghum vulgare), 14 days after application, read-out: Visual Growth Reduction (%) 14 Days After Application, SORVU
[7] = STEME: common chickweed (Stellaria media), 14 days after application, read-out: Visual Growth Reduction (%) 14 Days After Application, STEME
[8] = TRZAS: wheat, spring (Triticum aestivum), 14 days after application, read-out: Visual Growth Reduction (%) 14 Days After Application, TRZAS
[9] = blackgrass (Alopecurus myosuroides), 14 Days After Application, read-out: Visual Growth Reduction (%) ALOMY
[10] = crabgrass (Digitaria sanguinalis), 14 Days After Application, read-out: Visual Growth Reduction (%) DIGSA
[11] = lambsquarters (Chenopodium album), 14 Days After Application, read-out: Visual Growth Reduction (%) CHEAL
[12] = redroot pigweed (Amaranthus retroflexus), 14 Days After Application, read-out: Visual Growth Reduction (%) AMARE
[13] = wild oat (Avena fatua), 14 Days After Application, read-out: Visual Growth Reduction (%) AVEFA
[14] = yellow nutsedge (Cyperus esculentus), 14 Days After Application, read-out: Visual Growth Reduction (%) CYPES
[15] = canada thistle (Cirsium arvense), 14 Days After Application, read-out: Visual Growth Reduction (%) CIRAR
[16] = ALOMY: blackgrass (Alopecurus myosuroides), 14 days after application, read-out: Visual Growth Reduction (%) 14 Days After Application, ALOMY
[17] = AMARE: redroot pigweed (Amaranthus retroflexus), 14 days after application, read-out: Visual Growth Reduction (%) 14 Days After Application, AMARE
[18] = AVEFA: wild oat (Avena fatua), 14 days after application, read-out: Visual Growth Reduction (%) 14 Days After Application, AVEFA
[19] = CHEAL: lambsquarters (Chenopodium album), 14 days after application, read-out: Visual Growth Reduction (%) 14 Days After Application, CHEAL
[20] = CIRAR: canada thistle (Cirsium arvense), 14 days after application, read-out: Visual Growth Reduction (%) 14 Days After Application, CIRAR
[21] = CYPES: yellow nutsedge (Cyperus esculentus), 14 days after application, read-out: Visual Growth Reduction (%) 14 Days After Application, CYPES
[22] = DIGSA: crabgrass (Digitaria sanguinalis), 14 days after application, read-out: Visual Growth Reduction (%) 14 Days After Application, DIGSA

## COC(=O)c1nc(-c2cc3c(cc2F)OC(F)(F)O3)c(OC)cc1Cl [F335, Methyl 3-chloro-5-methoxy-6-(2,2,6-trifluorobenzo[d][1,3]dioxol-5-yl)picolinate]
[1]
  pest or weed control at 140 g/ha: 0 to 29%
[2]
  pest or weed control at 140 g/ha: 0 to 29%
[3]
  pest or weed control at 140 g/ha: 0 to 29%
[4]
  pest or weed control at 140 g/ha: 0 to 29%
[5]
  pest or weed control at 140 g/ha: 0 to 29%
[6]
  pest or weed control at 140 g/ha: 0 to 29%
[7]
  pest or weed control at 140 g/ha: 0 to 29%
[8]
  pest or weed control at 140 g/ha: 0 to 29%
[9]
  pest or weed control at 140 g/ha: 0 to 29%
[10]
  pest or weed control at 140 g/ha: 0 to 29%
[11]
  pest or weed control at 140 g/ha: 30 to 44%
[12]
  pest or weed control at 140 g/ha: 0 to 29%
[13]
  pest or weed control at 140 g/ha: 0 to 29%
[14]
  pest or weed control at 140 g/ha: 0 to 29%

## COC(=O)c1nc(-c2c(C)cc(C(F)(F)F)cc2Cl)ccc1Cl [F250, Methyl 3-chloro-6-(2-chloro-6-methyl-4-(trifluoromethyl)phenyl) picolinate]
[1]
  pest or weed control at 140 g/ha: 0 to 29%
[2]
  pest or weed control at 140 g/ha: 95 to 100%
[3]
  pest or weed control at 140 g/ha: 0 to 29%
[4]
  pest or weed control at 140 g/ha: 0 to 29%
[5]
  pest or weed control at 140 g/ha: 45 to 59%
[6]
  pest or weed control at 140 g/ha: 85 to 94%
[7]
  pest or weed control at 140 g/ha: 0 to 29%
[8]
  pest or weed control at 140 g/ha: 45 to 59%
[9]
  pest or weed control at 140 g/ha: 0 to 29%
[15]
  pest or weed control at 140 g/ha: 60 to 74%
[10]
  pest or weed control at 140 g/ha: 85 to 94%
[11]
  pest or weed control at 140 g/ha: 75 to 84%
[12]
  pest or weed control at 140 g/ha: 0 to 29%
[13]
  pest or weed control at 140 g/ha: 0 to 29%
[14]
  pest or weed control at 140 g/ha: 0 to 29%

## COC(=O)c1nc(-c2ccc(OC(F)F)cc2OC)c(F)cc1Cl [F161, Methyl 3-chloro-6-4-(difluoromethoxy)-2-methoxyphenyl)-5-fluoropicolinate]
[1]
  pest or weed control at 140 g/ha: 85 to 94%
[2]
  pest or weed control at 140 g/ha: 95 to 100%
[3]
  pest or weed control at 140 g/ha: 85 to 94%
[4]
  pest or weed control at 140 g/ha: 0 to 29%
[5]
  pest or weed control at 140 g/ha: 85 to 94%
[6]
  pest or weed control at 140 g/ha: 95 to 100%
[7]
  pest or weed control at 140 g/ha: 30 to 44%
[8]
  pest or weed control at 140 g/ha: 60 to 74%

## COC(=O)c1nc(-c2c(Cl)cc(C(F)(F)F)cc2Cl)ccc1Cl [F88, Methyl 3-chloro-6-(2,6-dichloro-4-(trifluoromethyl)phenyl)picolinate]
[16]
  pest or weed control at 140 g/ha: 60 to 74%
[17]
  pest or weed control at 140 g/ha: 95 to 100%
[18]
  pest or weed control at 140 g/ha: 0 to 29%
[19]
  pest or weed control at 140 g/ha: 95 to 100%
[20]
  pest or weed control at 140 g/ha: 85 to 94%
[21]
  pest or weed control at 140 g/ha: 0 to 29%
[22]
  pest or weed control at 140 g/ha: 85 to 94%
[1]
  pest or weed control at 140 g/ha: 75 to 84%
[2]
  pest or weed control at 140 g/ha: 75 to 84%
[3]
  pest or weed control at 140 g/ha: 45 to 59%
[4]
  pest or weed control at 140 g/ha: 0 to 29%
[5]
  pest or weed control at 140 g/ha: 85 to 94%
[6]
  pest or weed control at 140 g/ha: 85 to 94%
[7]
  pest or weed control at 140 g/ha: 0 to 29%
[8]
  pest or weed control at 140 g/ha: 30 to 44%

## COC(=O)c1nc(-c2ccc(C=O)c(F)c2OC)c(F)cc1Cl [F357, methyl 3-chloro-5-fluoro-6-(3-fluoro-4-formyl-2-methoxyphenyl)picolinate]
[1]
  pest or weed control at 140 g/ha: 0 to 29%
[2]
  pest or weed control at 140 g/ha: 0 to 29%
[3]
  pest or weed control at 140 g/ha: 0 to 29%
[4]
  pest or weed control at 140 g/ha: 0 to 29%
[5]
  pest or weed control at 140 g/ha: 0 to 29%
[6]
  pest or weed control at 140 g/ha: 0 to 29%
[7]
  pest or weed control at 140 g/ha: 0 to 29%
[8]
  pest or weed control at 140 g/ha: 0 to 29%
[9]
  pest or weed control at 140 g/ha: 0 to 29%
[15]
  pest or weed control at 140 g/ha: 0 to 29%
[10]
  pest or weed control at 140 g/ha: 0 to 29%
[11]
  pest or weed control at 140 g/ha: 0 to 29%
[12]
  pest or weed control at 140 g/ha: 0 to 29%
[13]
  pest or weed control at 140 g/ha: 0 to 29%
[14]
  pest or weed control at 140 g/ha: 0 to 29%

## O=C(O)c1nc(-c2ccc(SC(F)(F)F)cc2Cl)c(Cl)cc1Cl [F127, 3,5-Dichloro-6-(2-chloro-4-((trifluoromethyl)thio)phenyl) picolinic acid]
[16]
  pest or weed control at 140 g/ha: 0 to 29%
[17]
  pest or weed control at 140 g/ha: 95 to 100%
[18]
  pest or weed control at 140 g/ha: 0 to 29%
[19]
  pest or weed control at 140 g/ha: 75 to 84%
[20]
  pest or weed control at 140 g/ha: 85 to 94%
[21]
  pest or weed control at 140 g/ha: 0 to 29%
[22]
  pest or weed control at 140 g/ha: 60 to 74%
[1]
  pest or weed control at 140 g/ha: 0 to 29%
[2]
  pest or weed control at 140 g/ha: 45 to 59%
[3]
  pest or weed control at 140 g/ha: 75 to 84%
[4]
  pest or weed control at 140 g/ha: 0 to 29%
[5]
  pest or weed control at 140 g/ha: 75 to 84%
[6]
  pest or weed control at 140 g/ha: 60 to 74%
[7]
  pest or weed control at 140 g/ha: 0 to 29%
[8]
  pest or weed control at 140 g/ha: 0 to 29%

## O=C(O)c1nc(-c2ccnc(Cl)c2Cl)ccc1Cl [F133, 2′,3′,5-Trichloro-[2,4′-bipyridine]-6-carboxylic acid]
[16]
  pest or weed control at 140 g/ha: 0 to 29%
[17]
  pest or weed control at 140 g/ha: 0 to 29%
[18]
  pest or weed control at 140 g/ha: 0 to 29%
[19]
  pest or weed control at 140 g/ha: 75 to 84%
[20]
  pest or weed control at 140 g/ha: 0 to 29%
[21]
  pest or weed control at 140 g/ha: 0 to 29%
[22]
  pest or weed control at 140 g/ha: 45 to 59%
[1]
  pest or weed control at 140 g/ha: 0 to 29%
[2]
  pest or weed control at 140 g/ha: 45 to 59%
[3]
  pest or weed control at 140 g/ha: 0 to 29%
[4]
  pest or weed control at 140 g/ha: 0 to 29%
[5]
  pest or weed control at 140 g/ha: 0 to 29%
[6]
  pest or weed control at 140 g/ha: 60 to 74%
[7]
  pest or weed control at 140 g/ha: 0 to 29%
[8]
  pest or weed control at 140 g/ha: 0 to 29%

## COC(=O)c1nc(-c2cc3c(cc2Cl)OC(F)(F)O3)c(Cl)cc1Cl [F154, Methyl 3,5-dichloro-6-(6-chloro-2,2-difluorobenzo[d] [1,3]dioxol-5-yl)picolinate]
[16]
  pest or weed control at 140 g/ha: 0 to 29%
[17]
  pest or weed control at 140 g/ha: 85 to 94%
[18]
  pest or weed control at 140 g/ha: 0 to 29%
[19]
  pest or weed control at 140 g/ha: 85 to 94%
[20]
  pest or weed control at 140 g/ha: 0 to 29%
[21]
  pest or weed control at 140 g/ha: 0 to 29%
[22]
  pest or weed control at 140 g/ha: 60 to 74%
[1]
  pest or weed control at 140 g/ha: 0 to 29%
[2]
  pest or weed control at 140 g/ha: 95 to 100%
[3]
  pest or weed control at 140 g/ha: 0 to 29%
[4]
  pest or weed control at 140 g/ha: 0 to 29%
[5]
  pest or weed control at 140 g/ha: 45 to 59%
[6]
  pest or weed control at 140 g/ha: 60 to 74%
[7]
  pest or weed control at 140 g/ha: 0 to 29%
[8]
  pest or weed control at 140 g/ha: 0 to 29%
